Square brackets hold non-standard residues; d marks the D form. Peptide text beside a SMILES is read from it. * marks the point of attachment. Alaψ(CH2NMeCH2CH2OH) = C[C@@H](CN(C)CCO)N*; Decanoyl(2R-Me) = CCCCCCCC[C@@H](C)C(=O)*; Cha = N[C@@H](CC1CCCCC1)C(=O)O; Aib = CC(C)(N)C(=O)O
Legend:
[1] = tested on: MDA-MB-468 human breast cancer cells; conditions: via inhibition of the mTOR signaling pathway; cited from earlier work
Source text: (§1) Over the last decade, research in our group has focused on the synthesis and biological evaluation of aminolipopeptides as new generation anticancer therapeutics. They are structurally defined by the α,α-dialkylated amino acid 2-aminoisobutyric acid (Aib) and an acylated N-terminus. A subset of this family, containing the non-natural building block 2-amino-6-hydroxy-4-methyl-8-oxodecanoic acid (AHMOD), has provided two promising leads in leucinostatin A (1) and culicinin D (2).

[2] = tested on: PSN-1; conditions: MTT assay; only when cultured under minimal glucose in the growth medium; cited from earlier work
Source text: (§2) Intriguingly, there exists a precedence for this observation: the recent discovery of the leucinostatin Y by Kawada’s group was also reported alongside a comparative […] (MTT) assay against the parent peptide leucinostatin A (1) on the human PDAC cell lines PANC-1, BxPC-3, PSN-1, and PK-8 [21]. […] On this basis, we opted to re-evaluate the cytotoxicity of both trichoderins (3) and (4) against BxPC-3 and ...

[3] = tested on: PK-8; conditions: MTT assay; only when cultured under minimal glucose in the growth medium; cited from earlier work
Source text: as §2

[4] = tested on: BxPC-3; conditions: MTT assay; only when cultured under minimal glucose in the growth medium; cited from earlier work
Source text: as §2

[5] = tested on: PANC-1; conditions: MTT assay; only when cultured under minimal glucose in the growth medium; cited from earlier work
Source text: as §2

[6] = tested on: DU-145 human prostate cancer cells; conditions: coculture model with prostate stromal cells (PrSC); cited from earlier work
Source text: as §1

[7] = tested on: PANC-1 cells; assay: CyQUANT Direct cell proliferation assay, comparative cytotoxicity assay under 'low glucose'; assay type: cell-based, human; conditions: 24 h exposure
Source text: (§3) Endpoint fluorescence was quantified as described above.

[8] = tested on: BxPC-3 cells; assay: as above; assay type: cell-based, human; conditions: 24 h exposure
Source text: as §3

[9] = tested on: PANC-1 cells; assay: PrestoBlue cell viability assay, comparative cytotoxicity assay under 'low glucose'; assay type: cell-based, human; conditions: 24 h exposure
Source text: as §3

[10] = tested on: BxPC-3 cells; assay: as above; assay type: cell-based, human; conditions: 24 h exposure
Source text: as §3

[11] = tested on: BxPC-3 cells; assay: Initial cytotoxicity assay (PrestoBlue and CyQUANT Direct Confirmation Assay), 25 mM glucose; assay type: cell-based, human; conditions: 3-day (72 h) incubation, RPMI-1640 with 25 mM glucose, up to highest concentration tested of 1 µM, both viability assays
Method: The CyQUANT™ Direct Cell Proliferation Assay was subsequently performed by mixing the CyQUANT™ Direct nucleic acid stain, CyQUANT™ Direct background suppressor I, and PBS (pH 7.4) as per the vendor instructions, then adding 100 µL of this mixture into each well. The plate was returned into the incubator for a further 1 h, and the endpoint fluorescence bottom-read at the Ex/Em wavelength of 485/538 nm on the SpectraMax iD3 plate reader. Blank wells (medium only) and two negative controls—(1) cells + medium, (2) cells + medium + 0.3% v/v DMSO (equivalent to 1 µM peptide)—were set up in the plate for each experiment.

[12] = tested on: PANC-1 cells; conditions: 24 h exposure, medium with or without 5 mM glucose, up to 9 µM
Method: (§4) Cells were seeded at a density of 25,000 cells/well (BxPC-3) and 30,000 cells/well (PANC-1) in Nunc MicroWell 96-Well Black Optical-Bottom Plates with Polymer Base (total volume: 100 µL). Cells were first incubated overnight at 37 °C, 5% CO2 to permit adherence, after which the medium in each well was aspirated, briefly washed once with 100 µL/well of PBS (pH 7.4) and replaced with 100 µL of either RPMI 1640 (BxPC-3, #11879020) or DMEM (PANC-1, #11966025) supplemented with or without 5 mM glucose to create the ‘normal glucose’ and ‘low glucose’ media, respectively. This 5 mM glucose concentration was selected to reflect the physiological concentration of glucose in plasma. Each well was then exposed to the peptides in duplicate at a concentration range of 50.8 pM to 1 µM (BxPC-3) or 457 pM to 9 µM (PANC-1) for 24 h (threefold serial dilution in the corresponding ‘normal glucose’ or ‘low glucose’ media, ten steps). Endpoint fluorescence was quantified as described above.
(§5) Blank correction (wells containing medium only) was first performed on the raw fluorescence–concentration data from the plate reader. Cell viability was then calculated as a percentage by normalizing to the fluorescence of the wells containing the lowest drug concentration (50.8 pM for BxPC-3, 457 pM for PANC-1). The resulting data from three independent experiments (each in technical duplicate) was then plotted on GraphPad Prism 9 and analyzed using the built-in ‘[Inhibitor] vs. response—Variable slope (four parameters)’ equation.

[13] = tested on: BxPC-3 cells; conditions: 24 h exposure, medium with or without 5 mM glucose, up to 1 µM
Method: as §4, §5

[14] = 'low glucose' DMEM (no glucose added), 457 pM to 9 µM, three independent experiments each in technical duplicate
[15] = 'low glucose', area under viability-concentration curve, baseline y = 0, three independent experiments in duplicate
[16] = 'low glucose', response (percent viability) at highest concentration 9 µM, three independent experiments in duplicate
[17] = 'low glucose' RPMI 1640 (no glucose added), 50.8 pM to 1 µM, three independent experiments each in technical duplicate
[18] = 'low glucose', response (percent viability) at highest concentration 1 µM, three independent experiments in duplicate

culicinin D [(2)]
Toxicity against MDA-MB-468 (in words) [1]: selectively toxic

leucinostatin A [(1)]
Cytotoxicity against PSN-1 (in words) [2]: selectively cytotoxic | Cytotoxicity against PK-8 (in words) [3]: selectively cytotoxic | Cytotoxicity against BxPC-3 (in words) [4]: selectively cytotoxic | Cytotoxicity against PANC-1 (in words) [5]: selectively cytotoxic | Cytotoxicity against DU-145 (in words) [6]: cytotoxic

CCCCCCCC[C@@H](C)C(=O)N1CCC[C@H]1C(=O)N[C@@H](CC1CCCCC1)C(=O)NC(C)(C)C(=O)NC(C)(C)C(=O)N[C@H](C(=O)N[C@H](C(=O)NC(C)(C)C(=O)NC(C)(C)C(=O)N[C@@H](C)CN(C)CCO)C(C)C)[C@@H](C)CC [(4)] ({Decanoyl(2R-Me)}-P[Cha][Aib][Aib]IV[Aib][Aib]-{Alaψ(CH2NMeCH2CH2OH)})
IC50 [7, 14]: 1300 nM | AUC, CyQUANT Direct, PANC-1 [7, 15]: 39.6 ×10^−5 | Emax @ 9 µM, CyQUANT Direct, PANC-1 [7, 16]: 29.2% | IC50 [8, 17]: 400 nM | AUC, CyQUANT Direct, BxPC-3 [8, 15]: 5.4 ×10^−5 | Emax @ 1 µM, CyQUANT Direct, BxPC-3 [8, 18]: 21.0% | IC50 [9, 14]: 500 nM | AUC, PrestoBlue, PANC-1 [9, 15]: 23.1 ×10^−5 | Emax @ 9 µM, PrestoBlue, PANC-1 [9, 16]: 2.3% | IC50 [10, 17]: 400 nM | AUC, PrestoBlue, BxPC-3 [10, 15]: 5.1 ×10^−5 | Emax @ 1 µM, PrestoBlue, BxPC-3 [10, 18]: 1.7% | Inhibition of proliferation of BxPC-3 cells (in words) [11]: only partially inhibited the proliferation | Cytotoxicity against PANC-1 under 'low glucose' vs 'normal glucose' (in words) [12]: selective toxicity under the ‘low glucose’ condition | Cytotoxicity against BxPC-3 under 'low glucose' vs 'normal glucose' (in words) [13]: selective toxicity under the ‘low glucose’ condition

Reference: paper PMC9866366 (Pharmaceutics, 2023)
